From patent US20160279207A1, “TARGETING GDF6 AND BMP SIGNALING FOR ANTI-MELANOMA THERAPY” (University of Massachusetts, priority 2015, published 2016)
“Also recorded” adds a separate entry of the source.

Legend:
[1] = test system: A375 melanoma cells; assay: Apoptosis markers: Annexin5 staining and Caspase 3/7 cleavage; type: cell-based, human; details: vs shGFP
Protocol: A375 melanoma cells after knockdown of GDF6 or SMAD1 or EGFP were stained for Annexin V and 7-AAD (BD Pharmingen PR Annexin V Apoptosis Detection kit) as per manufacturer's instructions, followed by flow cytometry using a FACSCalibur instrument (BD Biosciences). Caspase3/7 activity was measured using the Caspase-Glo 3/7 assay (Promega) as per manufacturer's instructions.

[2] = test system: A375 melanoma cells; assay: A375 melanoma xenograft in nude mice, tumor volume; type: in vivo, mouse; details: for tumor formation (tumor volume) of shRNA-treated cells xenotransplanted into mice: A375 cells treated with shRNA before transplantation, vs shGFP/shEGFP; for xenograft tumor formation, SMAD1 phosphomimic cells: SMAD1DVD cells with GDF6 knocked down; for xenograft tumor formation, empty vector-transfected cells: empty vector cells with GDF6 knocked down
Protocol: An art-accepted model to test for an agent's effects on melanoma is that of using immunocompromised (“nude”) mice which are then injected subcutaneously with melanoma cells, and then concomitant with injection of the cells, sometime after injection, and/or after tumor establishment, the test agent is appropriately administered (e.g., intravenously, peritoneally, orally, etc.). Control and treated animals are monitored in part for tumor growth, tumor stabilization, and tumor regression (see for example, Yang et al. 2010. Cancer Res., 70:5518-5527 and Bollag et al. 2010. Nature. 467:596-599).
All animal protocols were approved by the UMMS Institution Animal Care and Use Committee (A-2016, A-2171). Mice were randomly allocated to individual experimental groups. No blinding was done as animal groups were identified by tagging and cage labeling. Animals were excluded, according to pre-established criteria, if the tumor volume reached >1,000 mm^3; if tumor size or location affected the mobility or general health of animal, the animal was euthanized and excluded from the experiment or the complete experiment was terminated. A375 cells stably expressing an EGFP or GDF6 or SMAD1 shRNA and/or empty vector or GDF6-expressing vector or SMAD1DVD-overexpressing vector were subcutaneously injected into the flanks of 6-8-week-old BALB/c nu/nu female mice (Taconic Farms) to produce orthotopic primary tumor. Primary tumor growth was monitored every 3 days with calipers, and the tumor volume was calculated as described previously (C. Gazin, N. Wajapeyee, S. Gobeil, C. M. Virbasius, M. R. Green, An elaborate pathway required for Ras-mediated epigenetic silencing. Nature 449, 1073-1077 (2007)). For GDF6 knockdown, SMAD1 knockdown and epistasis experiments, 1×10^7 live cells were injected. For GDF6 overexpression experiments, 1×10^6 live cells were injected. For GDF6 overexpression and GDF6 knockdowns, a representative of two independent experiments (n=3 animals per experiment) is shown. For DMH1 drug experiments, 1×10^6 live A375 cells were subcutaneously injected in the flanks of BALB/c nu/nu female mice. Beginning on the day cells were injected, mice were injected intraperitoneally with vehicle 12.5% 2-hydroxypropyl-β-cyclodextrin or 25 mg/kg DMH1 in vehicle every other day. The growth of the tumor was monitored as described above. This experiment was repeated twice and the weighted average of both experiments (n=8 total) is represented.

[3] = test system: GDF6; assay: Western blot of GDF6 protein after shRNA knockdown; type: cell-based, human; details: melanoma cells, vs shGFP control
Protocol: Lentiviral infections were performed as described previously (C. J. Ceol et al., The histone methyltransferase SETDB 1 is recurrently amplified in melanoma and accelerates its onset. (Nature 471, 513-517 (2011)). For stable gene knockdowns, we used pLKO-1 lentiviral vectors to deliver short hairpin sequences (shRNAs) (obtained from the RNAi Consortium (TRC)/Broad Institute through the UMMS RNAi core facility) specific for GDF6 (GDF6.1: TRCN0000141818, target sequence: […] (SEQ ID NO:10); GDF6.2: TRCN0000140097, target sequence: […] (SEQ ID NO:11)) or SMAD1 (SMAD1.1: TRCN0000021781, target sequence: […] (SEQ ID NO:12); SMAD1.2: TRCN0000021782, target sequence: […] (SEQ ID NO:13)) or EGFP (TRCN0000072181, target sequence: […] (SEQ ID NO:14)). Virus was made using a second generation lentiviral packaging system in HEK293T cells and titrated using a p24 ELISA kit (Clontech). Cells were infected with virus at a multiplicity of infection of 2.5 with 8 μg/ml polybrene followed by puromycin selection (2 μm/ml) for 2 days in appropriate media. For overexpression, we used Gateway cloning (Life Technologies) to insert the GDF6 ORF (GE life sciences) or SMAD1DVD ORF (provided by Takenobu Katagiri) into the pLenti CMV Hygro DEST (w117-1) vector (provided by Paul Kaufman). […]

[4] = test system: A375 melanoma cells; assay: Clonogenic growth (colony formation) assay; type: cell-based, human; details: for colonies in clonogenic growth assay after shRNA treatment: A375 cells, crystal violet staining; for colonies in clonogenic growth assay after shRNA treatment / colonies in clonogenic growth assay, empty vector-transfected cells: vs shGFP; for colonies in clonogenic growth assay, cells expressing SMAD1 phosphomimic (SMAD1DVD): SMAD1DVD cells treated with shRNA; for colonies in clonogenic growth assay, empty vector-transfected cells: empty vector cells treated with shRNA
Protocol: For growth curves 50,000 live cells were seeded per well in a 6-well tissue culture plate on day 0. The numbers of live cells were calculated every day using an automated cell counter (Nexcelom Bioscience Cellometer Auto T4) following standard procedures. All assays were performed with technical replicates. For clonogenic assays, 3,000 live cells were seeded in a 10 cm tissue culture plate. […] ImageJ was used to quantify the number of colonies. In assays with DMH1 treatment, control or DMH1-containing media was replaced every other day. For soft agar assays a 0.5% bottom layer (1:1 with 1% agar and 2X DMEM with 20% FBS) and a 0.3% top layer (1:1 with 0.6% agar and 2× DMEM with 20% FBS) were used. 3,000 live cells per well of a 6-well tissue culture plate were added in the top layer. Media was added initially then replaced every 3 days. After 3 weeks, colonies were stained with nitroblue tetrazolium chloride overnight at 37° C. Once stained, individual wells were photographed, and ImageJ was used to count the number of colonies. All these assays were done in triplicate, and experiments were repeated at least twice. A representative image of each has been shown.

[5] = test system: SMAD1; assay: Western blot of SMAD1 protein after shRNA knockdown; type: cell-based, human; details: melanoma cells, vs shGFP control
Protocol: Lentiviral infections were performed as described previously (C. J. Ceol et al., The histone methyltransferase SETDB 1 is recurrently amplified in melanoma and accelerates its onset. (Nature 471, 513-517 (2011)). For stable gene knockdowns, we used pLKO-1 lentiviral vectors to deliver short hairpin sequences (shRNAs) (obtained from the RNAi Consortium (TRC)/Broad Institute through the UMMS RNAi core facility) specific for GDF6 (GDF6.1: TRCN0000141818, target sequence: […] (SEQ ID NO:10); GDF6.2: TRCN0000140097, target sequence: […] (SEQ ID NO:11)) or SMAD1 (SMAD1.1: TRCN0000021781, target sequence: […] (SEQ ID NO:12); SMAD1.2: TRCN0000021782, target sequence: […] (SEQ ID NO:13)) or EGFP (TRCN0000072181, target sequence: […] (SEQ ID NO:14)). Virus was made using a second generation lentiviral packaging system in HEK293T cells and titrated using a p24 ELISA kit (Clontech). Cells were infected with virus at a multiplicity of infection of 2.5 with 8 μg/ml polybrene followed by puromycin selection (2 μm/ml) for 2 days in appropriate media. For overexpression, we used Gateway cloning (Life Technologies) to insert the GDF6 ORF (GE life sciences) or SMAD1DVD ORF (provided by Takenobu Katagiri) into the pLenti CMV Hygro DEST (w117-1) vector (provided by Paul Kaufman). Infection and monitoring was performed as described (C. J. Ceol et al., The histone methyltransferase SETDB 1 is recurrently amplified in melanoma and accelerates its onset. (Nature 471, 513-517 (2011)), except that selection was done with 300 ug/ml hygromycin for 10 days.
Protein extracts were prepared as previously described (S. D. Epstein L B, Hunte-McDonough B, harris C A, Cytokines: A pratical approach (Balkwill F R., ed). 81-93 (1991)). Extracts were separated on 12% SDS-PAGE gels. Blots were probed with primary antibodies (GDF6 (Sigma PRS4691; 1:1000), phospho-SMAD1/5/8 (Cell Signaling 13820; 1:1000), SMAD1 (Cell Signaling 9743; 1:500), Total SMAD1/5/8 (Santa Cruz sc-6031-R; 1:1000), FLAG (Sigma F3165, 1:2000), GAPDH (Abcam 8245; 1:2000)) overnight at 4° C., washed five times in TBS plus 0.1% Tween (TBST) and then incubated with the appropriate HRP-conjugated secondary antibody (Jackson Labs) for 1 hour at room temperature. Membranes were washed five times in TBST and visualized on autoradiography film after incubating with ECL reagent (Supersignal West Pico or Supersignal West Femto; Thermo Scientific).

[6] = test system: MeWo melanoma cells; assay: Rescue of GDF6-knockdown melanoma cells by recombinant GDF6 in culture media; type: cell-based, human; details: cells treated with shRNAs targeting GDF6
Description: To determine if secreted GDF6 can facilitate the growth of melanoma cells, we knocked down GDF6 using shRNAs and then treated these knockdown cells with recombinant GDF6 protein (FIG. 10).

shGDF6#1: shRNA targeting GDF6 (SEQ ID NO:1); GDF6.1 TRCN0000141818 targets SEQ ID NO:10 (GCCAAGTGTTACATTGAGCTT; the letters are possibly those of the target site; listed as Homo sapiens)
apoptosis (Annexin5 staining, Caspase 3/7 cleavage) [1]: elevated apoptosis relative to control cells | tumor formation (tumor volume) of shRNA-treated cells xenotransplanted into mice [2]: tumors intermediate between the control-treated (shEGFP) cells and the shGDF6#2-treated cells; also recorded: tumor volumes in xenografts decrease with the degree of GDF6 knockdown | xenograft tumor formation, SMAD1 phosphomimic cells [2]: tumor formation accelerated after day 15 | xenograft tumor formation, empty vector-transfected cells [2]: only small tumors formed | GDF6 protein expression after shRNA treatment [3]: partially inhibited GDF6 protein expression; also recorded: knockdown of GDF6 protein; also recorded: diminishes expression of GDF6 protein | colonies in clonogenic growth assay after shRNA treatment [4]: far fewer colonies | colonies in clonogenic growth assay, cells expressing SMAD1 phosphomimic (SMAD1DVD) [4]: partially restored | colonies in clonogenic growth assay, empty vector-transfected cells [4]: few colonies formed

shGDF6#2: shRNA targeting GDF6 (SEQ ID NO:2); GDF6.2 TRCN0000140097 targets SEQ ID NO:11 (GTGTCCATGCTCTCAGACAAA; the letters are possibly those of the target site; listed as Homo sapiens)
apoptosis (Annexin5 staining, Caspase 3/7 cleavage) [1]: elevated apoptosis relative to control cells | tumor formation (tumor volume) of shRNA-treated cells xenotransplanted into mice [2]: very little tumor formation; also recorded: formed tumors more slowly than control cells; also recorded: tumor volumes in xenografts decrease with the degree of GDF6 knockdown | xenograft tumor formation, SMAD1 phosphomimic cells [2]: tumor formation accelerated after day 15 | xenograft tumor formation, empty vector-transfected cells [2]: only small tumors formed | GDF6 protein expression after shRNA treatment [3]: more effective than shGDF6#1; also recorded: knockdown of GDF6 protein; also recorded: diminishes expression of GDF6 protein | colonies in clonogenic growth assay after shRNA treatment [4]: far fewer colonies | colonies in clonogenic growth assay, cells expressing SMAD1 phosphomimic (SMAD1DVD) [4]: partially restored | colonies in clonogenic growth assay, empty vector-transfected cells [4]: few colonies formed

shSMAD1-1: shRNA targeting SMAD1 (SEQ ID NO:4); SMAD1.1 TRCN0000021781 targets SEQ ID NO:12 (CGGTTGCTTATGAGGAACCAA; the letters are possibly those of the target site; listed as Homo sapiens)
apoptosis (Annexin5 staining, Caspase 3/7 cleavage) [1]: elevated apoptosis relative to control cells | SMAD1 protein expression after shRNA treatment [5]: knockdown of SMAD1 protein | SMAD1 protein expression after shRNA treatment ([5]; listed as shSMAD1#1): significantly decreased; also recorded: decreases expression of SMAD1 protein | tumor formation (tumor volume) of shRNA-treated cells xenotransplanted into mice [2]: formed only very small tumors; also recorded: tumor volumes in xenografts decrease | colonies in clonogenic growth assay after shRNA treatment [4]: far fewer colonies

shSMAD1-2: shRNA targeting SMAD1 (SEQ ID NO:5); SMAD1.2 TRCN0000021782 targets SEQ ID NO:13 (GCCGATGGACACAAACATGAT; the letters are possibly those of the target site; listed as Homo sapiens)
apoptosis (Annexin5 staining, Caspase 3/7 cleavage) [1]: elevated apoptosis relative to control cells | SMAD1 protein expression after shRNA treatment [5]: knockdown of SMAD1 protein | SMAD1 protein expression after shRNA treatment ([5]; listed as shSMAD1#2): significantly decreased; also recorded: decreases expression of SMAD1 protein | colonies in clonogenic growth assay after shRNA treatment [4]: far fewer colonies

B1: recombinant GDF6 protein: recombinant GDF6 protein added to culture media (protein, UniProt Q6KF10 336-455, looked up)
Growth/differentiation factor …: TAFASRHGKRHGKKSRLRCSKKPLHVNFKELGWDDWIIAPLEYEAYHCEGVCDFPLRSHLEPTNHAIIQTLMNSMDPGSTPPSCCVPTKLTPISILYIDAGNNVVYKQYEDMVVESCGCR
proliferation/survival of GDF6-knockdown melanoma cells with recombinant GDF6 added to media [6]: rescued the melanoma cells from undergoing GDF6 shRNA-induced apoptosis; also recorded: proliferation of GDF6-knockdown cells was restored | proliferation/survival of GDF6-knockdown melanoma cells with recombinant GDF6 added to media ([6]; listed as recombinant GDF6): able to sustain their proliferation
